Data published in patent US9605163B2, “Aminoalcohol compounds and their use as zero or low VOC additives for paints and coatings” (ANGUS CHEMICAL COMPANY, priority 2011, dated 2017).
Blank lines part the entries; values can stand above or below the molecule they belong to.

What was measured:
[1] = pKa determination by titration with H2SO4 in water; assay type: physicochemical; conditions: 0.5 N H2SO4, water as solvent
Protocol: pKa. pKa values are determined by titration using 0.5 NH2SO4 as titrant with water as solvent. Duplicate analyses are performed.

[2] = VOC according to ASTM D6886-rev gas chromatography method; assay type: physicochemical; conditions: for Percent VOC measured on the crude amine sample: ASTM D6886-rev, value attributed to impurities / residual amine; for VOC classification according to ASTM D6886-rev protocol: pure compound
Protocol: “Zero or low VOC compound” and like terms mean that a particular aminoalcohol compound of the invention passes the criteria set forth by one or more gas chromatography methods, such as ASTM D6886-rev method, ISO 11890 or GB 18581. ASTM D6886-rev method is preferred.
VOC. VOC properties are tested according to the ASTM D6886-rev method.

[3] = Freeze-thaw cycles of paint samples, Krebs Stormer viscosity; conditions: for Initial Viscosity (KU): paint of Table 5, additive post-added at 2 wt %, before freeze-thaw
Protocol: The paint formulations are prepared using F/T agent 1 as shown by structures below. The octanol water partition coefficient is calculated using the method of Moriguchi et al., Chem. Pharm. Bull. 40(1), 127-130 (1992). The calculated octanol-water partition coefficient for F/T-1 is 0.69. […] Paint samples are frozen at −18° C. for 17 hours and then thawed at 25° C. for 7 hours. This constitutes 1 complete freeze-thaw cycle. Viscosities are measured after each freeze-thaw cycle using a Krebs Stormer Viscometer from Sheen at room temperature. The viscosity is measured in Krebs unit (KU). The results of freeze-thaw cycles on paint samples that contain a zero-VOC compound of the invention as a post-add are listed in the Table 6. The post-add compound is mixed at 2 wt % in the paint samples. The same paint formulation is used in preparing all the samples. The paint sample without any post-add is designated as “Blank.”
The KU values below 150 as reported in Table 9 are considered acceptable, and all the values (other than that for the Blank) reported are considered very acceptable.

[4] = additive 2 wt %, cycle = −18° C. 17 hours, 25° C. 7 hours

Structure (SMILES): CC(C)(C)CC(C)(C)N(CC(O)CO)CC(O)CO (stereo not shown) [3,3′-((2,4,4-trimethylpentan-2-yl)azanediyl)bis(propane-1,2-diol)]
pKa [1]: 9
Percent VOC measured on the crude amine sample [2]: 3.6%
VOC classification according to ASTM D6886-rev protocol [2]: zero VOC

Structure (SMILES): CCC(O)CN(CC(O)CC)C(C)(C)CO (stereo not shown) [AMP-2BO, 1,1′-((1-hydroxy-2-methylpropan-2-yl)azanediyl)bis(butan-2-ol)]
pKa [1]: 9.1

Structure (SMILES): OCCN(CCO)C1CCCCC1O (stereo not shown) [DEA-CyHO, 2,2′-((2-hydroxycyclohexyl)azanediyl)diethanol]
pKa [1]: 8.6

Structure (SMILES): OCCOCCO [Diethylene Glycol, diethylene glycol, reference compound]
Viscosity after Freeze-Thaw cycles (KU), 5th cycle [3, 4]: 98 KU
Initial Viscosity (KU) [3]: 91.0 KU

Structure (SMILES): CC(C)(C)CC(C)(C)N(CC(O)CO)CC(O)CO (stereo not shown) [F/T Agent 1]
Viscosity after Freeze-Thaw cycles (KU), 1st cycle [3, 4]: 92.6 KU
Viscosity after Freeze-Thaw cycles (KU), 2nd cycle [3, 4]: 100.8 KU
Viscosity after Freeze-Thaw cycles (KU), 3rd cycle [3, 4]: 103.1 KU
Viscosity after Freeze-Thaw cycles (KU), 4th cycle [3, 4]: 104.2 KU
Viscosity after Freeze-Thaw cycles (KU), 5th cycle [3, 4]: 105.3 KU
Freeze-thaw survival of paint samples ([3]; additive as post-add): survive five freeze-thaw cycles
Initial Viscosity (KU) [3]: 85.2 KU

Now from value to molecule:

pKa [1]: 8.7
Structure (SMILES): CCC(O)CNC(CC)(CO)CO (stereo not shown) [AEPD-1BO, 2-ethyl-2-((2-hydroxybutyl)amino)propane-1,3-diol]

pKa [1]: 8
Structure (SMILES): CC(O)CNC(CO)(CO)CO (stereo not shown) [TA-1PO, 2-(hydroxymethyl)-2-((2-hydroxypropyl)amino)propane-1,3-diol]

pKa [1]: 7.8
Percent VOC measured on the crude amine sample [2]: 8.7%
VOC classification according to ASTM D6886-rev protocol [2]: zero VOC
Structure (SMILES): CC(C)OCC(O)CNC(CO)(CO)CO (stereo not shown) [TA-IPM, 2-((2-hydroxy-3-isopropoxypropyl)amino)-2-(hydroxymethyl)propane-1,3-diol]
